The values below come from patent US9579303B2, “Compositions containing polysaccharides” (DSM IP ASSETS B.V., priority 2005, dated 2017).

Data set [1] in a line: Granule size distribution by sieve analysis. Type of data set: physicochemical.
Data set [2] is described as follows: Flowability: time for 100 g to flow through an 11-mm funnel orifice. Type of data set: physicochemical. To be noted: 100 g through an 11-mm orifice of a funnel. On the procedure:
The flowability was determined by the time needed to have 100 g of genistein crystals or genistein granules flowing through an 11-mm orifice of a funnel.

Regarding `O=c1c(-c2ccc(O)cc2)coc2cc(O)cc(O)c12` [Genistein crystal, genistein], the “Granule Particle Size Distribution <150 μm” value in data set [1] (sieve fraction <150 μm) is 7.2%. In addition, the “Granule Particle Size Distribution >150 μm” value in data set [1] (sieve fraction >150 μm) turned out to be 28.2%. The “Granule Particle Size Distribution >250 μm” value in data set [1] (sieve fraction >250 μm) was 50%. Moreover, the “Granule Particle Size Distribution >425 μm” value in data set [1] (sieve fraction >425 μm) is recorded as 14.5%. Also, the “Granule Particle Size Distribution >600 μm” value in data set [1] (sieve fraction >600 μm) stood at 0%. In addition, the “Granule Particle Size Distribution >800 μm” value in data set [1] (sieve fraction >800 μm) was found to be 0%. The “Granule Particle Size Distribution >850 μm” value in data set [1] (sieve fraction >850 μm) worked out at 0.1%. Also, the Flowability result in data set [2] is reported as “No flow”.
